We go through 41 compounds from ChEMBL document CHEMBL1765052, “Developing potent human uric acid transporter 1 (hURAT1) inhibitors” (J Med Chem, 2011).

For experiment [1], the target named is T1, Solute carrier family 22 member 12 (Homo sapiens, UniProt Q96S37).
T1 sequence (Q96S37 whole entry): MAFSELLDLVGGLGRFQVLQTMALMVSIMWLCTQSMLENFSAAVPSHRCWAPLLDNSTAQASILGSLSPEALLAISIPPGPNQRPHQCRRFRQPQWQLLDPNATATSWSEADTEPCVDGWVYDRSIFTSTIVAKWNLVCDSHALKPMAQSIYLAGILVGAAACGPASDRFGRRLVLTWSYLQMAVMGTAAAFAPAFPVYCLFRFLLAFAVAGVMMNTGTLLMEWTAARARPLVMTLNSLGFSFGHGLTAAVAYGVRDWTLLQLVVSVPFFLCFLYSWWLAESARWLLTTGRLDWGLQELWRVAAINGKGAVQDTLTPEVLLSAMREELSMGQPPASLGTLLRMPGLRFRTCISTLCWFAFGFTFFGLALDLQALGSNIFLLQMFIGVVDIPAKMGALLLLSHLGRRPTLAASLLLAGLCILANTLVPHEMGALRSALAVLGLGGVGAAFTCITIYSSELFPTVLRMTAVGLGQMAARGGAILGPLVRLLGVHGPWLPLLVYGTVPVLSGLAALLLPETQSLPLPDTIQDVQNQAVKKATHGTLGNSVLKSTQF
As to the kind of experiment: Inhibition of human URAT1 expressed in xenopus oocyte assessed as inhibition of [14C]-labelled urate uptake at 50 uM after 60 mins by liquid scintillation counting. The following applies: 1 h.

Experiment [2] has as its target T1, Solute carrier family 22 member 12. Briefly: Inhibition of human URAT1 expressed in xenopus oocyte assessed as inhibition of [14C]-labelled urate uptake after 60 mins by liquid scintillation counting.

The structures appear in SMILES notation.

Usually inhibition stands for the relative decrease from the control value, in per cent. As to `CCc1oc2cc(O)ccc2c1C(=O)c1cc(Br)c(O)c(Br)c1`, the inhibition at 50 µM in experiment [1] is 99.8%. On the same count and under the same terms, in the case of `CCc1oc2ccccc2c1C(=O)c1ccc(OC)cc1` it was 13.3%; in that of `CCc1oc2ccc(OC)cc2c1C(=O)c1ccc(OC)cc1`, 24.3%; in that of `CCc1cc2c(C(=O)c3ccc(OC)cc3)c(OC)ccc2o1`, 6.1%. Still for that read-out and setting: in the case of `CCc1cc2cc(OC)cc(C(=O)c3ccc(OC)cc3)c2o1` it was 5.2%. On the same count and under the same terms, the result for `CCc1oc2cc(OC)ccc2c1C(=O)c1ccc(OC)cc1` reads 6.2%. Take `CCc1cc2c(C(=O)c3ccc(OC)cc3)cc(OC)cc2o1`: the inhibition at 50 µM in experiment [1] was found to be 1.5%. The same measure, in the same setting: in the case of `CCc1oc2c(OC)cccc2c1C(=O)c1ccc(OC)cc1` it was 17.2%. For the compound `CCc1cc2c(C(=O)c3ccc(OC)cc3)ccc(OC)c2o1`, the inhibition at 50 µM in experiment [1] amounted to 7.4%. As a reminder, the IC50 is the concentration at which inhibition is half-maximal. On to `CCc1oc2ccc(OC)cc2c1C(=O)c1ccc(O)cc1`, for which the inhibition at 50 µM in experiment [1] was 92.7%. In experiment [2], the concentration for half-maximal inhibition (IC50) was determined as 2.46 µM. With `CCc1oc2ccc(O)cc2c1C(=O)c1ccc(OC)cc1`, the inhibition at 50 µM in experiment [1] is 12.9%. As for `CCc1oc2ccc(O)cc2c1C(=O)c1ccc(O)cc1`, the inhibition at 50 µM in experiment [1] is 96.5%. Besides, the IC50 in experiment [2] stood at 2.49 µM. In the same order, the values of `CCc1cc2c(C(=O)c3ccc(O)cc3)c(OC)ccc2o1` are 88.2% and 6.68 µM. Consider `CCc1cc2c(C(=O)c3ccc(OC)cc3)c(O)ccc2o1`, for which the inhibition at 50 µM in experiment [1] came out at 28.7%. Same read-out and setting: the result for `CCc1cc2c(C(=O)c3ccc(O)cc3)c(O)ccc2o1` reads 51.5%. For `CCc1cc2cc(OC)cc(C(=O)c3ccc(O)cc3)c2o1`, the inhibition at 50 µM in experiment [1] came to 60%. The IC50 in experiment [2] came out at 33.7 µM.

For the compound `CCc1cc2cc(O)cc(C(=O)c3ccc(OC)cc3)c2o1`, in experiment [1], the inhibition at 50 µM was 9.3%. On the same count and under the same terms, in the case of `CCc1cc2cc(O)cc(C(=O)c3ccc(O)cc3)c2o1` it was 41%; in that of `CCc1oc2cc(OC)ccc2c1C(=O)c1ccc(O)cc1`, 92.7%. On the same count and under the same terms, in the case of `CCc1oc2cc(O)ccc2c1C(=O)c1ccc(OC)cc1` it was 48.3%.

On to `CCc1oc2cc(O)ccc2c1C(=O)c1ccc(O)cc1`, for which, in experiment [1], the inhibition at 50 µM is 92.1%. In addition, the IC50 in experiment [2] amounted to 1.13 µM. For `CCc1cc2c(C(=O)c3ccc(O)cc3)cc(OC)cc2o1`, in experiment [1], the inhibition at 50 µM was determined as 62.4%. Besides, the IC50 in experiment [2] was 19.7 µM.

In the case of `CCc1cc2c(C(=O)c3ccc(OC)cc3)cc(O)cc2o1`, the inhibition at 50 µM in experiment [1] was 12.4%.

`CCc1cc2c(C(=O)c3ccc(O)cc3)cc(O)cc2o1`: the inhibition at 50 µM in experiment [1] is 41%. Still for that read-out and setting: the result for `CCc1oc2c(O)cccc2c1C(=O)c1ccc(OC)cc1` reads 18.2%; that for `CCc1cc2c(C(=O)c3ccc(OC)cc3)ccc(O)c2o1`, 0.8%. Take `CCc1cc2c(C(=O)c3ccc(O)cc3)ccc(O)c2o1`: in experiment [1], the inhibition at 50 µM was 93.8%. Also, the IC50 in experiment [2] worked out at 3.94 µM. As for `CCc1oc2ccc(OC)cc2c1C(=O)c1cc(Br)c(O)c(Br)c1`, the inhibition at 50 µM in experiment [1] is 99.9%. As to `CCc1oc2ccc(O)cc2c1C(=O)c1cc(Br)c(O)c(Br)c1`, the inhibition at 50 µM in experiment [1] stood at 99.9%. For the same compound, the IC50 in experiment [2] was 0.189 µM. On to `CCc1cc2c(C(=O)c3cc(Br)c(O)c(Br)c3)c(OC)ccc2o1`, for which, in experiment [1], the inhibition at 50 µM came to 99.6%. Moreover, the IC50 in experiment [2] worked out at 0.358 µM. For the compound `CCc1cc2c(C(=O)c3cc(Br)c(O)c(Br)c3)c(O)ccc2o1`, the inhibition at 50 µM in experiment [1] was 99.9%. In experiment [2], the concentration for half-maximal inhibition (IC50) was 0.083 µM.

Consider `CCc1cc2cc(OC)cc(C(=O)c3cc(Br)c(O)c(Br)c3)c2o1`, for which the inhibition at 50 µM in experiment [1] was determined as 99%. In the case of `CCc1cc2cc(O)cc(C(=O)c3cc(Br)c(O)c(Br)c3)c2o1`, the inhibition at 50 µM in experiment [1] was 99.8%. Same read-out and setting: in the case of `CCc1oc2cc(OC)ccc2c1C(=O)c1cc(Br)c(O)c(Br)c1` it was 99.9%. As for `CCc1cc2c(C(=O)c3cc(Br)c(O)c(Br)c3)cc(Br)c(O)c2o1`, in experiment [1], the inhibition at 50 µM turned out to be 99.9%. In addition, the IC50 in experiment [2] is 0.177 µM. In the same order, the values of `CCc1oc2cc(Br)c(O)c(Br)c2c1C(=O)c1ccc(OC)cc1` are 76.5% and 23.5 µM. Regarding `CCc1oc2c(Br)c(O)c(Br)cc2c1C(=O)c1ccc(OC)cc1`, in experiment [1], the inhibition at 50 µM was 99.8%. Further, in experiment [2], the IC50 is 0.667 µM. In the same order, the values of `CCc1cc2c(C(=O)c3ccc(OC)cc3)cc(Br)c(O)c2o1` are 99.3% and 0.772 µM. Take `CCc1oc2ccccc2c1C(=O)c1ccc(O)cc1` [BENZARONE]: in experiment [1], the inhibition at 50 µM stood at 90.8%. Turning to `CCc1oc2ccccc2c1C(=O)c1cc(Br)c(O)c(Br)c1` [BENZBROMARONE], the inhibition at 50 µM in experiment [1] stood at 99.9%.

In the case of `CCCN(CCC)S(=O)(=O)c1ccc(C(=O)O)cc1` [PROBENECID], the inhibition at 50 µM in experiment [1] is 35.7%.
